# Reference: patent US20230134843A1, “TREATMENT OF STEM CELL DEFICIENCY” (OSPEDALE SAN RAFFAELE S.R.L., priority 2020, published 2023)
# “Also recorded” adds a separate entry of the source.
# Columns and labels:
# NK1R = molecular target: T1, NK1R (Mus musculus, UniProt P30548); assay: Epithelial corneal damage by corneal fluorescein staining, acute ocular GVHD mouse model; format: in vivo, mice; settings: Fosaprepitant 10 mg/mL topically six times a day (BM+T+Fosa); from day 14, p<0.05
# T1 construct: NK1R is expressed by both corneal epithelial and stem cell-like cells; from tissue; host or cells: cornea / ocular surface of live C57BL6/N mice (topical dosing in vivo)
# Description: (§1) 10-week-old male BALB/C and C57BL/6N mice (Charles River Laboratory, Lecco, Italy) were used for all the experiments (n=5/each group). All mice were free from ocular surface disease at baseline. The housing conditions were controlled (temperature 22° C., light from 07:00-19:00, humidity 50%-60%), and fresh food and water were freely available. The animals were monitored 3 times per week for 28 days post-transplantation for in vivo slit-lamp microscopy imaging, ocular surface score and systemic GVHD score (FIG. 11A). Carbon dioxide inhalation and subsequent cervical dislocation were applied to euthanize the animals. All the experiments were approved by the Animal Care and Use Committee of the IRCCS San Raffaele Scientific Institute, in accordance with the ARVO Statement for the Use of Animals in Ophthalmic and Vision Research.
# Allogenic BMT was conducted using the C57BL/6N and BALB/c mice as transplant donors and recipients, respectively. […]
# Clinical examination was performed to evaluate the ocular disease progression. […] Tear production was quantified with phenol red thread test (Zone-Quick; Lacrimedics, Eastsound, Wash., USA). […] The length of the moistened thread was measured in both eyes and the average was used as lacrimal tear volume for comparative analysis.
# CD45+ cells = assay: CD45+ inflammatory cell infiltration by immunohistochemistry, acute GVHD mouse model; format: in vivo, mice; settings: Fosaprepitant 10 mg/mL topically six times a day, day 29
# Description: as §1
# Allogenic BMT was conducted using the C57BL/6N and BALB/c mice as transplant donors and recipients, respectively. The recipient mice received total body irradiation (TBI) (900 cGy divided in two fractions) from a Cs source 1 day before the transplantation. The donor C57BL/6N mice were sacrificed on dry ice and they femur and spleen were harvested. The bones were gently crushed manually using a sterile stick, and bone marrow (BM) cells were released by mixing the fragments of bones with RPMI. The suspension of BM cells was filtered to remove the impurities inside. The spleens were also gently crushed into a cell suspension and filtered. Inventors suspended the BM cells and splenic cells with RPMI and adjusted the density of cells to 1×10^6/[…] and 2×10^6/[…], respectively. […]
# Mice were sacrificed 28 days after BM transplantation (Day 29 post irradiation) by carbon dioxide inhalation. […] Following three washes with PBS-T, sections were incubated in anti-goat HRP for 15 minutes and then detected with a goat-on-rodent HRP-Polymer Kit (Biocare Medical). Primary antibody labeling was detected using brown DAB substrate (Vector Laboratories, Burlingame, Calif., USA). […]
# T1 sequence (P30548 whole entry): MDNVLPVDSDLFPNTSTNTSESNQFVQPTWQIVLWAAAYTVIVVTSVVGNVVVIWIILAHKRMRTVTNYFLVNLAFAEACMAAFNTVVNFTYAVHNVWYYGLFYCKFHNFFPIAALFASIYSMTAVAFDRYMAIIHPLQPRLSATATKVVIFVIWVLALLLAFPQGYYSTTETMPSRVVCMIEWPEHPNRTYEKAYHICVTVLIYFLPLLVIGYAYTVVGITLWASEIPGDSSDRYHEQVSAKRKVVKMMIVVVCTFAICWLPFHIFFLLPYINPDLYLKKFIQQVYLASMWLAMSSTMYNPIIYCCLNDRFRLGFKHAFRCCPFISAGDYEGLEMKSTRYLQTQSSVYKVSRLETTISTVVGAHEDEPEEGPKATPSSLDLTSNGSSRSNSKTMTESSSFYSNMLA
smiles,measurement,setting,value
"C[C@@H](O[C@H]1OCCN(Cc2nc(=O)n(P(=O)(O)O)[nH]2)[C@H]1c1ccc(F)cc1)c1cc(C(F)(F)F)cc(C(F)(F)F)c1 [Fosaprepitant, [3-{[(2R,3S)-2-[(1R)-1-[3,5-bis(trifluoromethyl)phenyl]ethoxy]-3-(4-fluorophenyl)morpholin-4-yl]methyl}-5-oxo-2H-1,2,4-triazol-1-yl]phosphonic acid]",corneal fluorescein staining compared to BM+T mice,NK1R,reduction; also recorded: significantly reduced
same,CD45+ cell infiltration in the lacrimal gland,CD45+ cells; among all groups,no significant difference
same,CD45+ cell infiltration in the conjunctiva,CD45+ cells; p<0.0001,significantly reduced
same,CD45+ cell infiltration in the cornea,CD45+ cells; p<0.01,significantly reduced
